Measurements from patent US4291053A, “Agent to be administered orally to domestic animals without cellulose digestion in the rumen” (Hoechst Aktiengesellschaft, priority 1976, dated 1981).
≈ marks a conversion by molar mass, not a printed value. Structures can show the parent of a compound that is named as a salt. Where two headings read alike, the source gives them in different places. One block for each compound: values may come before it.

What was measured:
Treponema hyodysenteriae = assay: Minimum inhibiting concentration against Treponema hyodysenteriae, agar diffusion test with dilution series; format: cell-based; settings: for MIC: Brachyspira hyodysenteriae, read-out: Minimum inhibiting concentration (MIC)
Method: In order to detect the surprising effect on Treponema hyodysenteriae, this microorganism was cultivated according to the method of Harris on a trypticase-soy-agar using an addition of horse blood of 5% in a CO2 /H2 atmosphere, and the minimum inhibiting concentration of Salinomycin was determined in the agar diffusion test, while using the corresponding dilution series, as compared against commercial preparations showing a particularly good effect in dysentery diseases.

[1] = Piglet test S 83/75: incidence of diarrhea in feeding test (Example 1); format: in vivo, piglets
Method: A feeding test using Salinomycin was carried out on 78 piglets which were kept in boxes with 4 (or 3) animals each. At the beginning of the test, the animals were about 4 weeks old. Four replicates formed one group, and the following treatments were carried out:
1st group: untreated control group
2nd group: Salinomycin as raw product 25 mg/kg of fodder
3rd group: Salinomycin as raw product 50 mg/kg of fodder
4th group: Salinomycin as mycelium 50 mg/kg of fodder
5th group: comparison preparation A 50 mg/kg of fodder (5-Nitromidazol)
The basic feed had the following composition:
The occurrence of diarrhea in the individual boxes (sub-groups) was registered in the test periods of 14 days each and in the total test run of 56 days.

[2] = Feeding test with Salinomycin as raw product: growth and feed efficiency in early weaned piglets (Example 2); format: in vivo; settings: for statistical significance of the improvement (weight gain and feed efficiency): vs control; for Feed efficiency per animal, relative / Weight gain per animal, relative: relative to control
Method: A feeding test using Salinomycin as a raw product was carried out on 46 piglets weaned at an early age (4 weeks old) that were kept in sub-groups comprising 3 or 4 animals.
Initial weight: 9.8 kg on an average. The feed ration indicated in Example 1 served as basic feed.
4 Sub-groups comprising 15 animals altogether formed the untreated control group. 4 Sub-groups comprising 16 animals altogether were given 25 mg of Salinomycin as raw product per kg of feed, and 4sub-groups comprising 15 animals altogether were given 50 mg of Salinomycin per kg of feed in the form of the raw product. The test period was 8 weeks, with individual weighing at intervals of 2 weeks.

[3] = Feeding test with Salinomycin as mycelium: growth and feed efficiency in early weaned piglets (Example 3); format: in vivo; settings: for Feed efficiency per animal, relative / Weight gain per animal, relative: relative to control
Method: A feeding test using Salinomycin as a mycelium was carried out on 47 piglets weaned at an early age (4 weeks old) which were kept in sub-groups comprising 4 and 3 animals, respectively. The initial weight was 9.8 kg on an average. The feed ration indicated in Example 1 served as basic feed.
4 Sub-groups comprising 15 animals altogether formed the untreated control group. 4 Sub-groups comprising 16 animals altogether were given 50 mg of Salinomycin as a mycelium per kg of feed, and 4 sub-groups comprising 16 animals altogether were given 50 mg of a comparison preparation A (5-Nitroimidazol) per kg of feed. The test period was 8 weeks, with individual weighing at intervals of 2 weeks.

specified microorganisms = settings: antibacterial spectrum, J. Antibiotics 1974; cited from earlier work
[4] = raw product 25 ppm, 8 weeks, ++ 99% significance
[5] = raw product 50 ppm, 8 weeks, +++ 99.9% significance
[6] = 50 mg per kg of feed as mycelium, 8 weeks
[7] = 50 ppm (Salinomycin as mycelium), 2 weeks
[8] = 50 ppm (Salinomycin as mycelium), 4 weeks
[9] = 50 ppm (Salinomycin as mycelium), 6 weeks
[10] = 50 ppm (Salinomycin as mycelium), 8 weeks

MIC (Treponema hyodysenteriae; trypticase-soy-agar with 5% horse blood, CO2/H2 atmosphere): 2 µg/mL (≈ 11.8 µM)
Compound: CC(C)c1ncc([N+](=O)[O-])n1C [Ipronidazol]

Compound: CN(C)[C@@H]1C(=O)C(C(N)=O)=C(O)[C@@]2(O)C(=O)C3=C(O)c4c(O)cccc4[C@@](C)(O)[C@H]3[C@H](O)[C@@H]12 [Oxytetracycline]
MIC (Treponema hyodysenteriae): 100 µg/mL (≈ 217 µM)

Compound: CC[C@@H](C(=O)[C@@H](C)[C@@H](O)[C@H](C)[C@@H]1O[C@@H]([C@@H](CC)C(=O)O)CC[C@@H]1C)[C@H]1O[C@]2(C=C[C@@H](O)[C@]3(CC[C@@](C)([C@H]4CC[C@](O)(CC)[C@H](C)O4)O3)O2)[C@H](C)C[C@@H]1C [Salinomycin]
MIC (Treponema hyodysenteriae): 0.05 µg/mL (≈ 0.0666 µM) | effect on Treponema hyodysenteriae (Treponema hyodysenteriae; compared against commercial preparations, Table 1): superior effect | Incidence of diarrhea, per cent of test days ([1]; 50 ppm (Salinomycin as mycelium), 1st and 2nd week): 19.6% | Incidence of diarrhea in test days ([1]; 50 ppm (Salinomycin as mycelium), 1st and 2nd week, of 56 test days): 11 days | Incidence of diarrhea, per cent of test days ([1]; 50 ppm (Salinomycin as mycelium), 1st through 8th week): 10.7% | Incidence of diarrhea in test days ([1]; 50 ppm (Salinomycin as mycelium), 1st through 8th week, of 224 test days): 24 days | Incidence of diarrhea, per cent of test days ([1]; 50 ppm (Salinomycin as mycelium), 3rd and 4th week): 5.4% | Incidence of diarrhea in test days ([1]; 50 ppm (Salinomycin as mycelium), 3rd and 4th week, of 56 test days): 3 days | Incidence of diarrhea, per cent of test days ([1]; 50 ppm (Salinomycin as mycelium), 5th and 6th week): 7.1% | Incidence of diarrhea in test days ([1]; 50 ppm (Salinomycin as mycelium), 5th and 6th week, of 56 test days): 4 days | Incidence of diarrhea, per cent of test days ([1]; 50 ppm (Salinomycin as mycelium), 7th and 8th week): 10.7% | Incidence of diarrhea in test days ([1]; 50 ppm (Salinomycin as mycelium), 7th and 8th week, of 56 test days): 6 days | influence on the incidence of diarrhea ([1]; depending on the dosage, against untreated control and comparison preparation): very good influence on the incidence of diarrhea | Incidence of diarrhea, per cent of test days ([1]; raw product 25 ppm, 1st and 2nd week): 48.2% | Incidence of diarrhea in test days ([1]; raw product 25 ppm, 1st and 2nd week, of 56 test days): 27 days | Incidence of diarrhea, per cent of test days ([1]; raw product 25 ppm, 1st through 8th week): 60.3% | Incidence of diarrhea in test days ([1]; raw product 25 ppm, 1st through 8th week, of 224 test days): 135 days | Incidence of diarrhea, per cent of test days ([1]; raw product 25 ppm, 3rd and 4th week): 46.6% | Incidence of diarrhea in test days ([1]; raw product 25 ppm, 3rd and 4th week, of 56 test days): 26 days | Incidence of diarrhea, per cent of test days ([1]; raw product 25 ppm, 5th and 6th week): 69.6% | Incidence of diarrhea in test days ([1]; raw product 25 ppm, 5th and 6th week, of 56 test days): 39 days | Incidence of diarrhea, per cent of test days ([1]; raw product 25 ppm, 7th and 8th week): 76.8% | Incidence of diarrhea in test days ([1]; raw product 25 ppm, 7th and 8th week, of 56 test days): 43 days | Incidence of diarrhea, per cent of test days ([1]; raw product 50 ppm, 1st and 2nd week): 12.5% | Incidence of diarrhea in test days ([1]; raw product 50 ppm, 1st and 2nd week, of 56 test days): 7 days | Incidence of diarrhea, per cent of test days ([1]; raw product 50 ppm, 1st through 8th week): 19.1% | Incidence of diarrhea in test days ([1]; raw product 50 ppm, 1st through 8th week, of 224 test days): 43 days | Incidence of diarrhea, per cent of test days ([1]; raw product 50 ppm, 3rd and 4th week): 12.5% | Incidence of diarrhea in test days ([1]; raw product 50 ppm, 3rd and 4th week, of 56 test days): 7 days | Incidence of diarrhea, per cent of test days ([1]; raw product 50 ppm, 5th and 6th week): 28.6% | Incidence of diarrhea in test days ([1]; raw product 50 ppm, 5th and 6th week, of 56 test days): 16 days | Incidence of diarrhea, per cent of test days ([1]; raw product 50 ppm, 7th and 8th week): 23.2% | Incidence of diarrhea in test days ([1]; raw product 50 ppm, 7th and 8th week, of 56 test days): 13 days | statistical significance of the improvement (weight gain and feed efficiency) ([2]; raw product 25 mg per kg of feed): 99% | statistical significance of the improvement (weight gain and feed efficiency) ([2]; raw product 50 mg per kg of feed): 99.9% | Daily weight gain per animal ([2]; raw product 25 ppm, 2 weeks): 171 g | Feed efficiency per animal, absolute ([2]; raw product 25 ppm, 2 weeks): 1.900 | Weight gain per animal, absolute ([2]; raw product 25 ppm, 2 weeks): 2.4 kg | Feed efficiency per animal, relative ([2]; raw product 25 ppm, 2 weeks): 95.8% | Weight gain per animal, relative ([2]; raw product 25 ppm, 2 weeks): 104.3% | Daily weight gain per animal ([2]; raw product 25 ppm, 4 weeks): 250 g | Feed efficiency per animal, absolute ([2]; raw product 25 ppm, 4 weeks): 1.800 | Weight gain per animal, absolute ([2]; raw product 25 ppm, 4 weeks): 7.0 kg | Feed efficiency per animal, relative ([2]; raw product 25 ppm, 4 weeks): 95.7% | Weight gain per animal, relative ([2]; raw product 25 ppm, 4 weeks): 104.6% | Daily weight gain per animal ([2]; raw product 25 ppm, 6 weeks): 317 g | Feed efficiency per animal, absolute ([2]; raw product 25 ppm, 6 weeks): 1.802 | Weight gain per animal, absolute ([2]; raw product 25 ppm, 6 weeks): 13.0 kg | Feed efficiency per animal, relative ([2]; raw product 25 ppm, 6 weeks): 96.9% | Weight gain per animal, relative ([2]; raw product 25 ppm, 6 weeks): 103.3% | Daily weight gain per animal ([2]; raw product 25 ppm, 8 weeks): 380 g | Feed efficiency per animal, absolute ([2]; raw product 25 ppm, 8 weeks): 1.898 | Weight gain per animal, absolute ([2]; raw product 25 ppm, 8 weeks): 21.3 kg | Feed efficiency per animal, relative [2, 4]: 96.2% | Weight gain per animal, relative [2, 4]: 103.8% | Daily weight gain per animal ([2]; raw product 50 ppm, 2 weeks): 171 g | Feed efficiency per animal, absolute ([2]; raw product 50 ppm, 2 weeks): 1.900 | Weight gain per animal, absolute ([2]; raw product 50 ppm, 2 weeks): 2.4 kg | Feed efficiency per animal, relative ([2]; raw product 50 ppm, 2 weeks): 95.8% | Weight gain per animal, relative ([2]; raw product 50 ppm, 2 weeks): 104.3% | Daily weight gain per animal ([2]; raw product 50 ppm, 4 weeks): 257 g | Feed efficiency per animal, absolute ([2]; raw product 50 ppm, 4 weeks): 1.750 | Weight gain per animal, absolute ([2]; raw product 50 ppm, 4 weeks): 7.2 kg | Feed efficiency per animal, relative ([2]; raw product 50 ppm, 4 weeks): 93.0% | Weight gain per animal, relative ([2]; raw product 50 ppm, 4 weeks): 107.5% | Daily weight gain per animal ([2]; raw product 50 ppm, 6 weeks): 337 g | Feed efficiency per animal, absolute ([2]; raw product 50 ppm, 6 weeks): 1.698 | Weight gain per animal, absolute ([2]; raw product 50 ppm, 6 weeks): 13.8 kg | Feed efficiency per animal, relative ([2]; raw product 50 ppm, 6 weeks): 91.3% | Weight gain per animal, relative ([2]; raw product 50 ppm, 6 weeks): 109.8% | Daily weight gain per animal ([2]; raw product 50 ppm, 8 weeks): 396 g | Feed efficiency per animal, absolute ([2]; raw product 50 ppm, 8 weeks): 1.821 | Weight gain per animal, absolute ([2]; raw product 50 ppm, 8 weeks): 22.2 kg | Feed efficiency per animal, relative [2, 5]: 92.3% | Weight gain per animal, relative [2, 5]: 108.2% | statistical significance of the improvement of the feed efficiency [3, 6]: 99% | statistical significance of the improvement of the weight development [3, 6]: 99.9% | Daily weight gain per animal [3, 7]: 164 g | Feed efficiency per animal, absolute [3, 7]: 1.983 | Weight gain per animal, absolute [3, 7]: 2.3 kg | Feed efficiency per animal, relative [3, 7]: 100.0% | Weight gain per animal, relative [3, 7]: 100.0% | Daily weight gain per animal [3, 8]: 261 g | Feed efficiency per animal, absolute [3, 8]: 1.726 | Weight gain per animal, absolute [3, 8]: 7.3 kg | Feed efficiency per animal, relative [3, 8]: 91.8% | Weight gain per animal, relative [3, 8]: 109.2% | Daily weight gain per animal [3, 9]: 332 g | Feed efficiency per animal, absolute [3, 9]: 1.723 | Weight gain per animal, absolute [3, 9]: 13.6 kg | Feed efficiency per animal, relative [3, 9]: 92.6% | Weight gain per animal, relative [3, 9]: 108.1% | Daily weight gain per animal [3, 10]: 393 g | Feed efficiency per animal, absolute [3, 10]: 1.837 | Weight gain per animal, absolute [3, 10]: 22.0 kg | Feed efficiency per animal, relative ([3]; 50 ppm (Salinomycin as mycelium, ++ 99% significance), 8 weeks): 93.2% | Weight gain per animal, relative ([3]; 50 ppm (Salinomycin as mycelium, +++ 99.9% significance), 8 weeks): 107.4% | effect against the specified microorganisms (specified microorganisms): only an insiginificant or moderate effect

Compound: CN(C)[C@@H]1C(O)=C(C(N)=O)C(=O)[C@@]2(O)C(O)=C3C(=O)c4c(O)cccc4[C@@](C)(O)[C@H]3C[C@@H]12 [Tetracycline-HCl]
MIC (Treponema hyodysenteriae): 50 µg/mL

Compound: CC[C@H]1OC(=O)C[C@@H](O)[C@H](C)[C@@H](O[C@@H]2O[C@H](C)[C@@H](O[C@H]3C[C@@](C)(O)[C@@H](O)[C@H](C)O3)[C@H](N(C)C)[C@H]2O)[C@@H](CC=O)C[C@@H](C)C(=O)/C=C/C(C)=C/[C@@H]1CO[C@@H]1O[C@H](C)[C@@H](O)[C@@H](OC)[C@H]1OC [Tylosin]
MIC (Treponema hyodysenteriae): > 100 µg/mL
